Non-standard residues stand in square brackets, D forms with d. pGlu = O=C1CC[C@@H](C(=O)O)N1
Tests used:
Format in all cases: in vivo, human
sprain of the left ankle = assay: Example 21: analgesic effect on ankle sprain, topical
Description: A subject, suffered a sprain of the left ankle after stepping on a stone while hiking, twisting the ankle inwardly. Ten days later, after wearing an elastic ankle support daily, pain from the injury persisted. The subject topically applied an anhydrous composition containing 0.7% (w/v) N-Ac-Tyr-Pro-Phe-Phe-NH2 (SEQ ID NO: 23) in EP73, formulated as described in Example 2. […] Upon arising the next morning, the subject experienced mild ankle pain, whereupon the composition was again applied. […] The subject was discomfort free thereafter.

severe migraine = assay: Example 12: analgesic effect on severe migraine headache, topical; settings: 1% (w/v) in WEP442, topical
Experimental: One day, at approximately 8 AM, visual aura and pain in the frontal scalp, forehead and frontal sinuses began and became very severe within 5-10 minutes. Thereafter, the subject topically applied a composition containing 1% (w/v) N-Ac-Tyr-Pro-Phe-Phe-NH2(SEQ ID NO: 23) in WEP442 to the involved area. […] Three (3) days later they remained free of any migraine headache and symptoms.

neck and shoulder pain = assay: Example 16: analgesic effect on neck and shoulder pain, topical; settings: 0.5% (w/v) in WEP442, topical
Experimental: The subject could not move their neck without having a high level of pain and discomfort. The subject topically applied a composition containing 0.5% (w/v) N-Ac-Tyr-Pro-Phe-Phe-NH2(SEQ ID NO: 23) in WEP442 to the affected area of the skin. […] The pain relief lasted for more than 2 hours.

[1] = tested on: severe migraine headaches; assay: Example 41: analgesic effect on migraine headaches, topical
Description: A subject with severe migraine headaches associated with nausea and vomiting that had been occurring 3-4 times per month over the past 9-10 years, topically applied a composition containing 1% (w/v) of N-Ac-Tyr-Pro-Phe-Phe-NH2 (SEQ ID NO: 23) in WEP442 to the forehead, brow, eyelids and temporal areas at the onset of headaches. […] The frequency of episodes diminished over the next two months, and the subject reported that they experienced no headaches for at least a 5 week period.

TMJ syndrome pain = assay: Example 41: analgesic effect on TMJ pain, topical; settings: 0.5% (w/v) in WEP442, topical
Description: The same subject, also suffered pain from TMJ syndrome involving the left side joint for about 6 years. Attempts to alleviate the pain, e.g. cushioning mouth pieces worn during the night, failed. […] Increasing longer periods of relief have occurred over 5-6 weeks. They have reported that there was no more pain in the affected joint over a period of about one month.

[2] = tested on: psoriatic arthritis of fingers; assay: Example 19: analgesic effect on psoriatic arthritis of fingers, topical
Experimental: A subject had extensive plaque psoriasis and painful arthritis of the interphalangeal joints of both index fingers, left thumb and left 5th finger. The pain was compromising their work performance as an esthetician. […] Pain relief lasted for about 6 hours.

[3] = tested on: psoriatic arthritis in the joints of both feet; assay: Example 62: analgesic efficacy of psoriatic arthritis, feet, topical; settings: 1% (w/v) in WEP442, topical
Experimental: A subject with plague psoriasis had painful psoriatic arthritis in the joints of both feet for the past 10-12 years. Topical application of a composition containing 1% (w/v) of N-Ac-Tyr-Pro-Phe-Phe-NH2 (SEQ ID NO: 23) in WEP442 relieved the pain so that it was undetectable for 6-8 hours. Daily topical applications of the formulation for 5 days provided the same relief.

painful tendonitis = assay: Example 50: topical treatment of painful tendonitis of right wrist and right thumb; settings: 1% (w/v) in WEP442, topical
Description: A subject with painful tendonitis after playing tennis topically applied a composition containing 1% (w/v) of N-Pg-Tyr-Pro-Phe-Phe-NH2 (SEQ ID NO: 44) in WEP442 to the right thumb and to the entire wrist.

pharyngitis = assay: Example 64: analgesic effect on pharyngitis, oral
Experimental: A subject developed a respiratory tract infection, symptoms of which included coughing and pharyngitis. Swallowing of saliva was very painful for the subject. […] A solution containing 0.5% (w/v) of N-Pg-Tyr-Pro-Phe-Phe-NH2 (SEQ ID NO: 44) in a mixture of propylene glycol (10 parts by volume) and glycerol (90 parts by volume) was prepared. One teaspoonful of the solution was held in the posterior part of the mouth for about one minute and then swallowed. […] Such relief of painful swallowing lasted for about 3 hours. Repeated administrations provided the same results.

carpal tunnel syndrome = assay: Example 78: analgesic effect on carpal tunnel syndrome, topical
Experimental: A subject, and a computer operator, presented with symptoms of carpal tunnel syndrome, i.e. wrist pain and tingling sensations of the palm and fingers. […] Relief occurred within 3 minutes of topical application and lasted for 2-4 hours.

[4] = tested on: acute right temporal nauseating headache; assay: Example 49: topical treatment of severe right temporal headache; settings: 1% (w/v) in WEP442, topical
Description: They were given, by a nearby companion, a solution composition containing 1% (w/v) of N-Pg-Tyr-Pro-Phe-Phe-NH2 (SEQ ID NO: 44) in WEP442, which they topically applied to the right temporal area, right closed eyelids, entire forehead and right eyebrow.

severe headache = assay: Example 59: analgesic effect on headache of acupuncturist, topical; settings: 0.6% (w/v) in WEP442, topical
Description: A person acupuncturist, on a day while practicing their specialty, developed a severe headache that was not relieved by administering acupuncture procedures themself.

stress headaches = assay: Example 69: analgesic effect on repeating stress headaches, topical; settings: 0.5% (w/v) in WEP442, topical, 5-6 headaches over 3 weeks
Description: A person had repeated stress headaches for several months. Such headaches had been relieved, or partially relieved, by over-the-counter medication.

[5] = 0.7% (w/v) in EP73, first topical application
[6] = 0.7% (w/v) in EP73, second application
[7] = 0.5% (w/v) in propylene glycol/glycerol, oral

**Q.** With `CC(=O)N[C@@H](Cc1ccc(O)cc1)C(=O)N1CCC[C@H]1C(=O)N[C@@H](Cc1ccccc1)C(=O)N[C@@H](Cc1ccccc1)C(N)=O` [N-Ac-Tyr-Pro-Phe-Phe-NH2] as the molecule, how does the pain relief (sprain of the left ankle; 0.7% (w/v) in EP73, application next morning, within about 5 minutes) read?
**A.** no discomfort was discernible

**Q.** What about the pain relief (sprain of the left ankle; [5]) of the same molecule?
**A.** relieved almost completely

**Q.** And the “time to pain relief” value (sprain of the left ankle; [5])?
**A.** 3 to 4 min

**Q.** What about the pain relief (sprain of the left ankle; [6]) of the same molecule?
**A.** complete relief of all discomfort

**Q.** And the “time to pain relief” value (sprain of the left ankle; [6])?
**A.** ≤ 5 min

**Q.** And the “relief of migraine pain and all other symptoms” value (severe migraine)?
**A.** suddenly disappeared completely

**Q.** And the “time free of migraine headache and symptoms” value (severe migraine)?
**A.** ≥ 3 days

**Q.** What about the “time to pain relief” value (severe migraine) of the same molecule?
**A.** 6 to 7 min

**Q.** And the “duration of pain relief” value (neck and shoulder pain)?
**A.** more than 2 hours

**Q.** And the “relief of pain in shoulder and neck” value (neck and shoulder pain)?
**A.** approximately 90%

**Q.** And the “time to pain relief” value (neck and shoulder pain)?
**A.** ≤ 2 min

**Q.** And the “time to pain relief” value ([1]; 1% (w/v) in WEP442, topical)?
**A.** 2 to 3 min

**Q.** What about the pain relief ([1]; 1% (w/v) in WEP442, topical at onset of headaches) of the same molecule?
**A.** Complete relief of pain and other symptoms

**Q.** And the period without headaches ([1]; 1% (w/v) in WEP442, topical, over the next two months)?
**A.** ≥ 5 week

**Q.** What about the “duration of pain relief” value (TMJ syndrome pain) of the same molecule?
**A.** more than 8 hours

**Q.** And the pain relief (TMJ syndrome pain)?
**A.** rapidly and completely alleviated pain

**Q.** What about the “duration of pain relief” value ([2]; 1% (w/v) in WEP442, topical) of the same molecule?
**A.** about 6 hours

**Q.** And the “time to pain relief” value ([2]; 1% (w/v) in WEP442, topical)?
**A.** ≤ 30 s

**Q.** And the pain relief ([2]; 1% (w/v) in WEP442, topical each day for one month)?
**A.** all arthritic pain of the finger was gone

**Q.** And the “duration of pain relief” value [3]?
**A.** 6 to 8 h

**Q.** And the pain relief [3]?
**A.** undetectable

**Q.** How did the pain relief (painful tendonitis) turn out when “N-Pg-Tyr-Pro-Phe-Phe-NH2 ([pGlu]YPFF-NH2; SMILES NC(=O)[C@H](Cc1ccccc1)NC(=O)[C@H](Cc1ccccc1)NC(=O)[C@@H]1CCCN1C(=O)[C@H](Cc1ccc(O)cc1)NC(=O)[C@@H]1CCC(=O)N1)” was run?
**A.** all pain and discomfort from any hand movements were gone

**Q.** And the “time to pain relief” value (painful tendonitis)?
**A.** 5 to 10 min

**Q.** What about the “time without return of pain (follow up period)” value (painful tendonitis) of the same molecule?
**A.** ≥ 24 h

**Q.** What about the “relief of painful swallowing” value (pharyngitis; 0.5% (w/v) in propylene glycol/glycerol 10:90, one teaspoonful held in mouth and swallowed) of the same molecule?
**A.** swallowing of liquids and semi-solid food could be done without pharyngeal pain

**Q.** And the duration of relief (pharyngitis; [7])?
**A.** about 3 hours

**Q.** What about the time to relief (pharyngitis; [7]) of the same molecule?
**A.** ≤ 10 min

**Q.** What about the duration of relief (carpal tunnel syndrome; 0.5% (w/v) in WEP442, topical) of the same molecule?
**A.** 2 to 4 h

**Q.** What about the time to relief (carpal tunnel syndrome; 0.5% (w/v) in WEP442, topical) of the same molecule?
**A.** ≤ 3 min

**Q.** What about the relief of symptoms (carpal tunnel syndrome; 0.5% (w/v) in WEP442, topical several times during working hours) of the same molecule?
**A.** substantial relief of the symptoms

**Q.** What about the pain relief [4] of the same molecule?
**A.** the headache subsided completely

**Q.** And the recurrence [4]?
**A.** did not return

**Q.** What about the “time to pain relief” value [4] of the same molecule?
**A.** 3 to 5 min

**Q.** What about the pain relief (severe headache) of the same molecule?
**A.** completely relieved their headache

**Q.** And the “time to pain relief” value (severe headache)?
**A.** ≤ 2 min

**Q.** And the headache relief (stress headaches)?
**A.** completely relieved almost immediately

Source: US20190248834A1, “ENDOMORPHIN-2, TETRAPEPTIDE DERIVATIVES THEREOF, AND USES THEREOF” (priority 2016, published 2019)
